This is an account of results in US7488799B2, “Prostaglandin receptor protein” (Aventis Pharmaceuticals Inc., priority 2003, dated 2009).

pEC50: −log10 of the molar value.

The term pEC50 denotes the EC50 on a negative log10 scale, so that one unit is a factor of ten.

Test [1] concerns the target T1, mouse DP receptor (Mus musculus, UniProt P70263).
T1 construct: A full length cDNA for the mouse DP receptor was obtained by PCR; expressed in transfected cells
T1 sequence (P70263 1-357): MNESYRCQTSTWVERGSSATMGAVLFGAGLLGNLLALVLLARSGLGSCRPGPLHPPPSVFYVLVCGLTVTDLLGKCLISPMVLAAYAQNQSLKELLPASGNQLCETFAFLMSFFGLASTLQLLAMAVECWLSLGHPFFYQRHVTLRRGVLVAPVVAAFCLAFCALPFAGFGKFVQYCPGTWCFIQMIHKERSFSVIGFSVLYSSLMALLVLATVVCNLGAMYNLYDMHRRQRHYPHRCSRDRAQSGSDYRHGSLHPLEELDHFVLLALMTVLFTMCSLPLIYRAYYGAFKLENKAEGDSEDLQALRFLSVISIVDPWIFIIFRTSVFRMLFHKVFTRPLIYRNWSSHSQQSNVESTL
The test can be described thus: Intracellular calcium assay (FLIPR), mouse DP receptor in HEK293-Gα16 cells. It counts as cell-based. The note with it: mouse DP-expressing HEK293-Gα16 cells, FIG. 6, read-out: EC50, intracellular calcium mobilization. How it is done:
The pEAK10-gpDP and pEAK10-mDP vectors were transfected into the HEK293-Gα16 cell line using Lipofectamine 2000 (Gibco) as described by the manufacturer. Transfected cells were cultured under selection with 1 ug/ml puromycin and 250 ug/ml zeocin for 5 weeks. Expression of the DP receptor was monitored in the transfected cell population by measuring the release of intracellular calcium in response to PGD2 stimulation.
For functional characterization the newly cloned guinea pig DP receptor was stably transfected into HEK293-Gα16 cells and for comparison an equivalent cell line was generated with the mouse DP receptor. Both DP receptor-expressing cell lines, as well as the parental cell line not expressing any transfected DP receptor, were evaluated in a second messenger assay using the force coupling of the receptor to Gα16 to elicit a calcium response. Intracellular calcium measurements were performed using non-transfected HEK293-Gα16 cells or cells transfected with either the pEAK10-gpDP or the pEAK10-mDP expression vectors. Transfected and non-transfected cells were plated in 384 well plates at 10,000 cells per well. Cells were washed three times with calcium assay buffer. […] Intracellular calcium was measured following PGD2 or buffer stimulation of […] loaded cells using a FLIPR instrument (Molecular Devices Corp.).
(A change in cytosolic calcium serves as a functional read-out for many receptors and channels.)

Test [2] deals with T1, mouse DP receptor. The test can be described thus: SPA cAMP assay, mouse DP cell line. The class given is cell-based. The note with it: 15 minutes stimulation, FIG. 7, read-out: EC50, cAMP accumulation.
Test [3] relates to parental HEK293-Gα16 cell line. The test can be described thus: SPA cAMP assay, parental cell line. The class given is cell-based. Conditions: parental HEK293-Gα16 cells, 15 minutes stimulation. How it is done: (§1) An additional functional characterization of the newly cloned guinea pig DP receptor used the natural signaling pathway for DP, the stimulation of cAMP production by adenylate cyclase. Transfected or non-transfected cells were plated at 40,000 cells per well of a 96 well plate. After overnight incubation at 37° C., medium was replaced and cells were stimulated with defined concentrations of PGD2 for 15 minutes. The accumulation of cAMP was measured in the stimulated cells using the cAMP SPA Direct Screening Assay System (Amersham) according to procedures specified by the manufacturer.
(Cyclic AMP is a second messenger, typically raised through Gs and lowered through Gi signalling.)

For test [4], the system named is parental HEK293-Gα16 cell line. Kind of test: Intracellular calcium assay (FLIPR), parental cell line without transfected DP receptor. Conditions: parental HEK293-Gα16 cells, no transfected DP receptor. The class given is cell-based. The text has this:
The cDNA encoding human Gα16 was cloned as described (Amatruda et al., 1991). Briefly, total RNA from HL-60 human promyelocytic leukemia cells was isolated and used as a template for PCR-mediated synthesis of cDNA encoding Gα16. The resulting PCR product was cloned into the expression vector pHook-3 (Invitrogen), which also coexpresses a single-chain antibody (sFv) to allow convenient enrichment of transfected cells using a panning protocol with hapten-coated magnetobeads (Chesnut et al., 1996). HEK293 cells were transfected with the constructed plasmid (pGα16), selected with Zeocin and positive clones enriched using magnetobeads according to protocols supplied by the vendor. […]
For functional characterization the newly cloned guinea pig DP receptor was stably transfected into HEK293-Gα16 cells and for comparison an equivalent cell line was generated with the mouse DP receptor. Both DP receptor-expressing cell lines, as well as the parental cell line not expressing any transfected DP receptor, were evaluated in a second messenger assay using the force coupling of the receptor to Gα16 to elicit a calcium response. […] Intracellular calcium was measured following PGD2 or buffer stimulation of […] loaded cells using a FLIPR instrument (Molecular Devices Corp.).

For test [5], the system named is recombinant guinea pig DP receptor. The test can be described thus: Intracellular calcium assay (FLIPR), guinea pig DP receptor in HEK293-Gα16 cells. The class given is cell-based, guinea pig (Cavia porcellus). The note with it: guinea pig DP-expressing HEK293-Gα16 cells, FIG. 6, read-out: EC50, intracellular calcium mobilization.
Description: For functional characterization the newly cloned guinea pig DP receptor was stably transfected into HEK293-Gα16 cells and for comparison an equivalent cell line was generated with the mouse DP receptor. Both DP receptor-expressing cell lines, as well as the parental cell line not expressing any transfected DP receptor, were evaluated in a second messenger assay using the force coupling of the receptor to Gα16 to elicit a calcium response. Intracellular calcium measurements were performed using non-transfected HEK293-Gα16 cells or cells transfected with either the pEAK10-gpDP or the pEAK10-mDP expression vectors. Transfected and non-transfected cells were plated in 384 well plates at 10,000 cells per well. Cells were washed three times with calcium assay buffer. Cells were then incubated with 4 μM of the calcium loading dye Fura-4/AM (Molecular Probes) at 37° C. for x min. Unincorporated fura-4/AM was removed by three further washes with calcium assay buffer. Intracellular calcium was measured following PGD2 or buffer stimulation of Fura-4/AM loaded cells using a FLIPR instrument (Molecular Devices Corp.).
The test system is the same in test [6]. Kind of test: SPA cAMP assay, guinea pig DP cell line. It counts as cell-based, guinea pig (Cavia porcellus). Conditions: 15 minutes stimulation, FIG. 7, read-out: EC50, cAMP accumulation. How it is done: as §1

Take `CCCCC[C@H](O)/C=C/[C@H]1C(=O)C[C@H](O)[C@@H]1C/C=C\CCCC(=O)O` [PGD2, Prostaglandin D2]: the pEC50 on mouse DP receptor [1] was 7.74; at mouse DP receptor [2], 9.30; in test [5], 8.85; in test [6] it was 9.10. Further, in test [3], the “intracellular cAMP response to stimulation” value is given as “did not show an increase in intracellular cAMP”. The “PGD2 concentration at which a calcium response is seen” value in test [4] is “above 10 μM”.
